Source: patent US10889554B2, “Excimer forming compounds” (THE GOVERNING COUNCIL OF THE UNIVERSITY OF TORONTO, priority 2013, dated 2021)

Legend:
MRC-9 cells = test: Fixed cell imaging; assay type: cell-based, human
Description: MRC-9 cells were plated on an 8-chamber tissue culture treated glass slide (BD Falcon; 40,000 cells/chamber) and cultured for two days at 37° C., 5% CO2. Media was removed and cells were incubated with 200 μL of 3.4% formaldehyde solution in 1×PBS for 10 min. Cells were washed 3×3 min with PBS and stored in PBS at 4° C. until staining. Cells were washed 3× with 50 mM HEPES and incubated in 40 μM solution of compound 1 in complex with Zn^2+ (triflate salt) dissolved in 50 mM HEPES, 75 mM NaCl, 10% DMSO for 1 h. Cells were rinsed 2× with 50 mM HEPES and mounted with a mounting solution and a cover slip.

[1] = test system: proximally phosphorylated peptides; test: Detection of proximally phosphorylated peptides in aqueous solution (384 well plate, emission 476 nm); assay type: binding
Description: In one example 40 μM of compound 1 pre-metallated with zinc(II) triflate (referred to as “Zn^2+ pre-metallation” in FIG. 13; procedure described in example) was titrated with 80-0.04 μM of pY and pYpY peptides in 50 mM HEPES pH 7.5, 5% DMSO. In another example, 40 μM of compound 1 was dissolved in 50 mM HEPES pH 7.5, 5% DMSO, which contained 40 μM of zinc(II) triflate (referred to as “in situ Zn^2+ metallation” in FIG. 13) and was titrated with 80-0.04 μM of pY and pYpY peptides. Fluorescence measurements were performed as described in Example 2.
(§1) Various conditions for the detection of proximally phosphorylated peptides and proteins in aqueous solution are shown in Table 1. For the screens, analytes (peptides) were dissolved in a specific buffer at various concentrations (normally 100 μM to 40 nM), and combined with 40 μM of compound 1 in complex with Zn^2+ (triflate salt) dissolved in the same buffer on a 384 well flat bottom black plate. The mixture was incubated for 20 minutes and fluorescence emission intensity at 476 nm (10-20 nm bandwidth) was measured using a Tecan M1000 microplate reader, upon excitation at 350 nm (5 nm bandwidth) at 400 Hz. The different conditions tested were assessed based on the ratios of signal intensity of positive to negative control analytes and signal intensity in general.
Peptides containing two phosphotyrosine residues, spaced by 2-5 alanine residues, were titrated into 40 μM solution of compound 1 in complex with Zn^2+ (triflate salt) (pH 7.5 50 mM HEPES, 10% propylene, 25 mM NaCl) from 80 μM to 40 nM (FIG. 16). Y-axis is Δ Fluorescence Intensity as defined by the formula in example 2.
Using the same methods as described in Example 6, Zn^2+ (triflate salt) complexes of compounds 1, compound 9, compound 15, compound 14 were tested in pH 7.5, 50 mM HEPES, 25 mM NaCl, 10% propylene glycol.
Using the same methods as described in Example 6, Zn^2+ (triflate salt) complexes of compound 1 and compound 12 were tested in pH 7.5, 50 mM HEPES, 5% DMSO.

[2] = test system: proximally phosphorylated proteins (α-casein, β-casein and D-α-casein); test: In-solution detection of proteins; assay type: binding, Bos taurus; details: pH 7.5, 50 mM HEPES; for efficiency at detecting the proximally phosphorylated proteins: Zn^2+ (triflate salt) complexes, 75 mM NaCl, 20% DMSO
Text: Non-phosphorylated (BSA and lysozyme) and distally phosphorylated negative control proteins (ovalbumin) were used in detection methods for in-solution, on gel and on blot applications. Dephosphorylated α-casein (D-α-casein), β-casein and α-casein served as proximally phosphorylated positive controls (see Table 2). The phosphosites presented in Table 2 were obtained from the PhosphoSitePlus database or a UniProt database.
as §1, with “proteins” for “peptides”, “3. Proteins” for “1. For the screens, analytes (peptides)”, “a” for “a specific”, “general. Among the parameters assessed in this study and using these specific control proteins, the following conditions were selected for proteins studies: pH 5.5 50 mM NaOAc, 50 mM NaCl, 5% DMSO (see FIG. 27). […] Depending on the number of proximally di-phosphorylated sites, lower detection limits could be achieved by using lower concentration of a sensor.” for “general.”
Using same methods as described in Example 1.1c, Zn^2+ (triflate salt) complexes of compounds 1 (top left), compound 9 (top right), compound 15 (middle left), and compound 14 (middle right) were tested in pH 7.5, 50 mM HEPES, 75 mM NaCl, 20% DMSO (see FIG. 28).
Using same methods as described in Example 14, 40 and 20 μM of Zn^2+ (triflate salt) complexes of compound 1 (top) and compound 12 (bottom) (FIG. 29), were tested in pH 7.5, 50 mM HEPES, 5% DMSO.
Using same methods as described above, 60, 40, 20 and 10 μM of Zn^2+ (triflate salt) complexed with compound 12 (FIG. 30), were titrated with 80-0.04 μM of proteins in pH 7.5, 50 mM HEPES, 5% DMSO.

β-casein = target: T1, β-casein (Bos taurus, UniProt P02666); test: On-gel detection of proximally phosphorylated protein using GaCl3 complexes; assay type: binding
T1 construct: purchased Sigma Aldrich C6905-250MG
T1 sequence (P02666 16-224): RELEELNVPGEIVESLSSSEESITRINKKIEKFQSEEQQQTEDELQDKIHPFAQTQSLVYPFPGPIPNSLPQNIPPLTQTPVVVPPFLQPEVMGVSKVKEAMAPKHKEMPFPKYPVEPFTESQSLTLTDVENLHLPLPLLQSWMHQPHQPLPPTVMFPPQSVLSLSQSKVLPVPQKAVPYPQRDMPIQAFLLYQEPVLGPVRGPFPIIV
Description: (§2) Compound 8 was dissolved in 50 mM NaOAc buffer, pH 4.5, 50 mM NaCl, 10% DMSO and combined with 80, 160 or and 240 μM GaCl3 solutions. Each gel contained 4 lanes with equal amounts of BSA, ovalbumin (Ova), β-casein (β-cas) and lysozyme (Lyso) in each lane (left to right: 1, 0.5, 0.25 and 0.125 μg per protein per lane) (see FIG. 37). Gels were stained for 1 h with the sensor solution. Gels were first de-stained with 50 mM NaOAc buffer pH 4.5 for 2 h and then with 50 mM NaOAc buffer pH 4.0 20% acetonitrile for 40 h.
(§3) Compound 8 was dissolved in 100 mM NaOAc buffer, pH 4.5, 150 mM NaCl, 20% propylene glycol and combined with 10 and 15 μM GaCl3 solutions. Each gel contained 4 lanes with equal amounts of BSA, ovalbumin (Ova), β-casein (β-cas) and lysozyme (Lyso) in each lane (FIG. 40) left to right: 1, 0.5, 0.25 and 0.125 μg per protein per lane). Gels were stained for 1.5 h with the sensor solution. Destaining was performed for variable time (specified at the top) with 50 mM NaOAc, pH 4.0, 20% acetonitrile. Gels were rinsed with MiliQ water for 5 min prior to imaging. Images were acquired using ChemiDoc MP, using a 530 nm emission filter and UV trans excitation.
as §2, with “Compound 2” for “Compound 8”, “lane) (FIG. 42).” for “lane) (see FIG. 37).”, “h. […] However with the increased destaining time the intensity of β-casein band relative to other proteins was increasing, resulting in a 6.7-fold higher intensity over the distally phosphorylated protein ovalbumin. Lane containing 1 μg of each protein was analyzed (FIG. 43).” for “h.”
as §3, with “2” for “8”, “45)” for “40)”, “acetonitrile (see FIGS. 45 and 46).” for “acetonitrile.”

[3] = Titration of compound with GaCl3 at different pH (fluorescence at 376 nm); assay type: binding; details: 40 μM compound
Description: GaCl3 was titrated into 40 μM (constant) of compound 2 from 500 to 0.25 μM at pH 4.5 (50 mM NaOAc) and 7.5 (HEPES). Fluorescence intensity was measured at 376 and 476 nm at 350 nm excitation. […] At pH 4.5 saturation is observed at 10 μM of GaCl3.
40 μM of compound 3 was titrated with GaCl3 (250-0.12 μM) and the change in emission at 376 nm was recorded upon excitation at 350 nm as shown in FIG. 48.

[4] = test system: MRC-9 and A549 cell lines; test: Fixed cell imaging: monitoring increase in proximal phosphorylation; assay type: cell-based, human; details: pre-treatment before fixation
[5] = 100 mM NaOAc pH 4.5, 150 mM NaCl, 20% propylene glycol, destain 50 mM NaOAc, pH 4.0, 20% acetonitrile

c1cc2ccc3ccc(CN4CCNCCNCCNCC4)c4ccc(c1)c2c34 [compound 1, 1-(Pyren-1-methyl)-1,4,7,10-tetraazacyclododecane]
intracellular fluorescence, metallated vs non-metallated (MRC-9 cells): only compound 1-Zn^2+ complex, is capable of inducing intracellular fluorescence | signal with mono-phosphorylated or non-phosphorylated peptides ([1]; Zn^2+ triflate complex, 40 μM): did not produce a significant signal | efficiency at detecting the proximally phosphorylated proteins [2]: comparable efficiency

O=C(O)CN(CC(=O)O)c1ccccc1OCCOc1cc(NC(=O)CCCc2ccc3ccc4cccc5ccc2c3c45)ccc1N(CC(=O)O)CC(=O)O [compound 2, 2,2′-((2-(2-(2-(bis(carboxymethyl)amino)-5-(4-(pyren-1-yl)butanamido)phenoxy)ethoxy)phenyl)azanediyl)diacetic acid]
selectivity for β-casein after 2 h destaining (β-casein; 80 μM compound, 1:1 GaCl3, stained 1 h): did not result in the selective staining | β-casein over distally phosphorylated ovalbumin (β-casein; 80 μM compound, 1:1 GaCl3, stained 1 h, 40 h destaining, 1 μg per protein): 6.7 fold | selectivity for β-casein with more than 1:1 equivalent of compound:GaCl3 (β-casein; 50 mM NaOAc pH 4.5, 50 mM NaCl, 10% DMSO, 160 or 240 μM GaCl3): did not result in good selectivity | selective staining for β-casein, no destaining (β-casein; 100 mM NaOAc pH 4.5, 150 mM NaCl, 20% propylene glycol, 1:1 and 1:1.5 compound:GaCl3, stained 1.5 h): did not result in selective staining | staining of β-casein band following 16 h destain (β-casein; [5]): most prominently stained band | β-casein signal over distally phosphorylated ovalbumin following 16 h destain (β-casein; [5]): 10 fold | GaCl3 concentration at which saturation is observed ([3]; pH 4.5 (50 mM NaOAc)): 10 µM | saturation at higher concentration of GaCl3 ([3]; pH 7.5 (HEPES)): saturation was not observed

O=C(O)CN1CCN(CCCCc2ccc3ccc4cccc5ccc2c3c45)CCN(CC(=O)O)CCN(CC(=O)O)CC1 [compound 3, 2,2′,2″-(10-(4-(pyren-1-yl)butyl)-1,4,7,10-tetraazacyclododecane-1,4,7-triyl)triacetic acid]
concentrations at which Ga^3+-compound complex formation was observed ([3]; pH 5.5 and 4.5, 50 mM NaOAc): single-digit

c1cc2ccc3ccc(CCCCN4CCNCCNCCNCC4)c4ccc(c1)c2c34 [compound 9, 1-(4-(pyren-1-yl)butyl)-1,4,7,10-tetraazacyclododecane]
sensitivity for peptides in which the two phosphorylated tyrosine residues are more spaced out, vs compound 1 ([1]; Zn^2+ (triflate salt) complexes, pH 7.5, 50 mM HEPES, 25 mM NaCl, 10% propylene glycol): increased | efficiency at detecting the proximally phosphorylated proteins [2]: comparable efficiency

c1cc2ccc3ccc(CN4CCCNCCNCCCNCC4)c4ccc(c1)c2c34 [compound 12, 1-(pyren-1-ylmethyl)-1,4,8,11-tetraazacyclotetradecane]
detecting proximally phosphorylated peptides ([1]; Zn^2+ (triflate salt) complex, pH 7.5, 50 mM HEPES, 5% DMSO): potent | detection limit on lowering the concentration of the sensor ([2]; 60, 40, 20 and 10 μM Zn^2+ complex, 5% DMSO): improved

IL-6: a JAK2 pathway-inducing agent
fluorescent signal from compound 1-Zn^2+ in pre-treated cells [4]: significantly increased
